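GI50: concentration for 50% inhibition of growth. TGI: total growth inhibition.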
Experiments:
Assay in all cases: growth of human tumour cells (NCI), 384-well format
786-0 renal = test system: 786-0 renal
A498 renal = test system: A498 renal
A549 NSCLC = test system: A549 NSCLC
ACHN renal = test system: ACHN renal
BT-549 breast = test system: BT-549 breast
CAKI-1 renal = test system: CAKI-1 renal
COLO 205 colon = test system: COLO 205 colon
DU-145 prostate = test system: DU-145 prostate
EKVX NSCLC = test system: EKVX NSCLC
HCT-116 colon = test system: HCT-116 colon
HCT-15 colon = test system: HCT-15 colon
HL-60(TB) leukemia = test system: HL-60(TB) leukemia
HOP-62 NSCLC = test system: HOP-62 NSCLC
HOP-92 NSCLC = test system: HOP-92 NSCLC
HS 578T breast = test system: HS 578T breast
HT29 colon = test system: HT29 colon
IGROV1 ovarian = test system: IGROV1 ovarian
K-562 leukemia = test system: K-562 leukemia
KM12 colon = test system: KM12 colon
M14 melanoma = test system: M14 melanoma
MALME-3M melanoma = test system: MALME-3M melanoma
MCF7 breast = test system: MCF7 breast
MDA-MB-231 breast = test system: MDA-MB-231 breast
MDA-MB-435 melanoma = test system: MDA-MB-435 melanoma
MDA-MB-468 breast = test system: MDA-MB-468 breast
MOLT-4 leukemia = test system: MOLT-4 leukemia
NCI-H226 lung = test system: NCI-H226 lung
NCI-H23 lung = test system: NCI-H23 lung
NCI-H322M lung = test system: NCI-H322M lung
NCI-H460 NSCLC = test system: NCI-H460 NSCLC
NCI-H522 lung = test system: NCI-H522 lung
OVCAR-3 ovarian = test system: OVCAR-3 ovarian
OVCAR-4 ovarian = test system: OVCAR-4 ovarian
OVCAR-5 ovarian = test system: OVCAR-5 ovarian
OVCAR-8 ovarian = test system: OVCAR-8 ovarian
PC-3 prostate = test system: PC-3 prostate
RXF 393 renal = test system: RXF 393 renal
SF-268 CNS = test system: SF-268 CNS
SF-295 CNS = test system: SF-295 CNS
SF-539 CNS = test system: SF-539 CNS
SK-MEL-2 melanoma = test system: SK-MEL-2 melanoma
SK-MEL-28 melanoma = test system: SK-MEL-28 melanoma
SK-MEL-5 melanoma = test system: SK-MEL-5 melanoma
SK-OV-3 ovarian = test system: SK-OV-3 ovarian
SN12C renal = test system: SN12C renal
SNB-19 CNS = test system: SNB-19 CNS
SNB-75 CNS = test system: SNB-75 CNS
SR leukemia = test system: SR leukemia
SW-620 colon = test system: SW-620 colon
T-47D breast = test system: T-47D breast
TK-10 renal = test system: TK-10 renal
U251 glioblastoma = test system: U251 glioblastoma
UACC-257 melanoma = test system: UACC-257 melanoma
UACC-62 melanoma = test system: UACC-62 melanoma
UO-31 renal = test system: UO-31 renal
HCC-2998 colon = test system: HCC-2998 colon
LOX IMVI melanoma = test system: LOX IMVI melanoma
NCI/ADR-RES ovarian = test system: NCI/ADR-RES ovarian
RPMI-8226 leukemia = test system: RPMI-8226 leukemia

## Cn1cc(-c2ccc(CNc3cc(-c4cnc5cc(OCCCN6CCCC6)ccn45)ncn3)cc2)cn1
786-0 renal
  GI50: 1.54 µM
  TGI: 2.89 µM
A498 renal
  GI50: 1.78 µM
  TGI: 3.18 µM
A549 NSCLC
  GI50: 1.82 µM
  TGI: 3.23 µM
ACHN renal
  GI50: 1.81 µM
  TGI: 3.21 µM
BT-549 breast
  GI50: 1.62 µM
  TGI: 2.98 µM
CAKI-1 renal
  GI50: 1.86 µM
  TGI: 3.26 µM
COLO 205 colon
  GI50: 2.01 µM
  TGI: 3.45 µM
DU-145 prostate
  GI50: 1.82 µM
  TGI: 3.34 µM
EKVX NSCLC
  GI50: 1.67 µM
  TGI: 3.06 µM
HCT-116 colon
  GI50: 1.63 µM
  TGI: 3.02 µM
HCT-15 colon
  GI50: 1.77 µM
  TGI: 3.2 µM
HL-60(TB) leukemia
  GI50: 1.56 µM
  TGI: 2.9 µM
HOP-62 NSCLC
  GI50: 1.63 µM
  TGI: 3 µM
HOP-92 NSCLC
  GI50: 1.84 µM
  TGI: 3.25 µM
HS 578T breast
  GI50: 1.58 µM
  TGI: 2.93 µM
HT29 colon
  GI50: 0.969 µM
  TGI: 2.15 µM
IGROV1 ovarian
  GI50: 1.88 µM
  TGI: 3.34 µM
K-562 leukemia
  GI50: 1.5 µM
  TGI: 2.85 µM
KM12 colon
  GI50: 1.85 µM
  TGI: 3.29 µM
M14 melanoma
  GI50: 1.84 µM
  TGI: 3.24 µM
MALME-3M melanoma
  GI50: 1.83 µM
  TGI: 3.23 µM
MCF7 breast
  GI50: 1.36 µM
  TGI: 2.67 µM
MDA-MB-231 breast
  GI50: 1.61 µM
  TGI: 2.97 µM
MDA-MB-435 melanoma
  GI50: 1.77 µM
  TGI: 3.17 µM
MDA-MB-468 breast
  GI50: 1.8 µM
  TGI: 3.21 µM
MOLT-4 leukemia
  GI50: 1.5 µM
  TGI: 2.83 µM
NCI-H226 lung
  GI50: 1.69 µM
  TGI: 3.06 µM
NCI-H23 lung
  GI50: 11.3 µM
  TGI: 23.5 µM
NCI-H322M lung
  GI50: 1.92 µM
  TGI: 3.57 µM
NCI-H460 NSCLC
  GI50: 1.32 µM
  TGI: 2.62 µM
NCI-H522 lung
  GI50: 2.09 µM
  TGI: 3.53 µM
OVCAR-3 ovarian
  GI50: 1.84 µM
  TGI: 3.25 µM
OVCAR-4 ovarian
  GI50: 1.55 µM
  TGI: 2.91 µM
OVCAR-5 ovarian
  GI50: 1.69 µM
  TGI: 3.09 µM
OVCAR-8 ovarian
  GI50: 1.72 µM
  TGI: 3.11 µM
PC-3 prostate
  GI50: 1.7 µM
  TGI: 3.28 µM
RXF 393 renal
  GI50: 1.53 µM
  TGI: 2.87 µM
SF-268 CNS
  GI50: 1.85 µM
  TGI: 3.28 µM
SF-295 CNS
  GI50: 1.81 µM
  TGI: 3.22 µM
SF-539 CNS
  GI50: 1.18 µM
  TGI: 2.41 µM
SK-MEL-2 melanoma
  GI50: 1.84 µM
  TGI: 3.24 µM
SK-MEL-28 melanoma
  GI50: 1.82 µM
  TGI: 3.22 µM
SK-MEL-5 melanoma
  GI50: 1.49 µM
  TGI: 2.82 µM
SK-OV-3 ovarian
  GI50: 1.8 µM
  TGI: 3.21 µM
SN12C renal
  GI50: 1.77 µM
  TGI: 3.16 µM
SNB-19 CNS
  GI50: 1.74 µM
  TGI: 3.41 µM
SNB-75 CNS
  GI50: 1.79 µM
  TGI: 3.19 µM
SR leukemia
  GI50: 1.69 µM
  TGI: 3.07 µM
SW-620 colon
  GI50: 1.69 µM
  TGI: 3.09 µM
T-47D breast
  GI50: 1.9 µM
  TGI: 3.33 µM
TK-10 renal
  GI50: 1.78 µM
  TGI: 3.18 µM
U251 glioblastoma
  GI50: 1.79 µM
  TGI: 3.2 µM
UACC-257 melanoma
  GI50: 1.53 µM
  TGI: 2.87 µM
UACC-62 melanoma
  GI50: 1.83 µM
  TGI: 3.23 µM
UO-31 renal
  GI50: 1.75 µM
  TGI: 3.14 µM

## CCc1c[nH]c2ncnc(N3CC[C@@](N)(CNC(=O)c4ccc(F)cc4F)C3)c12
A498 renal
  GI50: 2.72 µM
  TGI: 19.3 µM
A549 NSCLC
  GI50: 20.8 µM
  TGI: 50.7 µM
ACHN renal
  GI50: 15.5 µM
  TGI: 50 µM
BT-549 breast
  GI50: 10.9 µM
  TGI: 24.9 µM
CAKI-1 renal
  GI50: 16.5 µM
  TGI: > 100 µM
COLO 205 colon
  GI50: 15.8 µM
  TGI: 41.5 µM
DU-145 prostate
  GI50: 23.2 µM
  TGI: 94.1 µM
EKVX NSCLC
  GI50: 28.6 µM
  TGI: > 100 µM
HCC-2998 colon
  GI50: 18.8 µM
  TGI: > 100 µM
HCT-116 colon
  GI50: 20.5 µM
  TGI: > 100 µM
HCT-15 colon
  GI50: 32 µM
  TGI: > 100 µM
HL-60(TB) leukemia
  GI50: 15.7 µM
  TGI: 29.4 µM
HOP-62 NSCLC
  GI50: 20 µM
  TGI: 93 µM
HOP-92 NSCLC
  GI50: 28.6 µM
  TGI: > 100 µM
HS 578T breast
  GI50: 14.9 µM
  TGI: 33.7 µM
HT29 colon
  GI50: 29.1 µM
  TGI: > 100 µM
IGROV1 ovarian
  GI50: 6.09 µM
  TGI: 32.4 µM
KM12 colon
  GI50: 4.05 µM
  TGI: > 100 µM
LOX IMVI melanoma
  GI50: 18.9 µM
  TGI: 47.3 µM
M14 melanoma
  GI50: 28.4 µM
  TGI: > 100 µM
MALME-3M melanoma
  GI50: 14.2 µM
  TGI: 37.5 µM
MCF7 breast
  GI50: 12.7 µM
  TGI: > 100 µM
MDA-MB-231 breast
  GI50: 35.6 µM
  TGI: > 100 µM
MDA-MB-435 melanoma
  GI50: 31.4 µM
  TGI: > 100 µM
MDA-MB-468 breast
  GI50: 13.9 µM
  TGI: 55.5 µM
MOLT-4 leukemia
  GI50: 5.23 µM
  TGI: 20.3 µM
NCI-H226 lung
  GI50: 20.2 µM
  TGI: > 100 µM
NCI-H23 lung
  GI50: 14.5 µM
  TGI: 39.9 µM
NCI-H322M lung
  GI50: 22 µM
  TGI: 79.4 µM
NCI-H460 NSCLC
  GI50: 11.3 µM
  TGI: > 100 µM
NCI-H522 lung
  GI50: 16.8 µM
  TGI: 47.4 µM
NCI/ADR-RES ovarian
  GI50: 89 µM
  TGI: > 100 µM
OVCAR-3 ovarian
  GI50: 33.8 µM
  TGI: > 100 µM
OVCAR-4 ovarian
  GI50: > 100 µM
  TGI: > 100 µM
OVCAR-5 ovarian
  GI50: 17.1 µM
  TGI: 76 µM
OVCAR-8 ovarian
  GI50: 41.3 µM
  TGI: > 100 µM
PC-3 prostate
  GI50: 22.1 µM
  TGI: > 100 µM
RPMI-8226 leukemia
  GI50: 14.2 µM
  TGI: 54.7 µM
RXF 393 renal
  GI50: 27.8 µM
  TGI: > 100 µM
SF-268 CNS
  GI50: 48.3 µM
  TGI: > 100 µM
SF-295 CNS
  GI50: 29.1 µM
  TGI: > 100 µM
SF-539 CNS
  GI50: 11.9 µM
  TGI: > 100 µM
SK-MEL-28 melanoma
  GI50: 25.5 µM
  TGI: > 100 µM
SK-MEL-5 melanoma
  GI50: 11 µM
  TGI: 28.4 µM
SK-OV-3 ovarian
  GI50: 13.6 µM
  TGI: > 100 µM
SN12C renal
  GI50: 23.3 µM
  TGI: 88.5 µM
SNB-19 CNS
  GI50: 61.9 µM
  TGI: > 100 µM
SNB-75 CNS
  GI50: 31.3 µM
  TGI: > 100 µM
SR leukemia
  TGI: 0.816 µM
T-47D breast
  GI50: 35.3 µM
  TGI: > 100 µM
TK-10 renal
  GI50: 13.5 µM
  TGI: 42.8 µM
U251 glioblastoma
  GI50: 37.4 µM
  TGI: > 100 µM
UACC-257 melanoma
  GI50: 16.5 µM
  TGI: 37 µM
UACC-62 melanoma
  GI50: 18.9 µM
  TGI: 59.2 µM

Reference: PubChem BioAssay (NCI)
